# Assay results: patent publication US20210208130A1, “ASSAYS FOR CELL-BASED THERAPIES OR TREATMENTS” (The Regents of the University of California, priority 2018, published 2021)
# System: Human Retinoblastoma (hRB) Y79 (ATCC HTB-18) cells
# Test: Fluorescence-based (CellTiter-Blue, resazurin) cell viability potency assay with sodium butyrate insult
# Details: 2, 4, 8 mM sodium butyrate; 72 hours incubation
# Description: In the following examples, Human Retinoblastoma (hRB) Y79 (ATCC® HTB-18™) cells were expanded and maintained for use by culturing in ATCC®-formulated RPMI-1640 medium supplemented with 20% fetal bovine serum. The cells were maintained according to ATCC® recommendations. Human retinal progenitor cells (hRPCs) and human retinal pigment epithelium cells (hRPE cells) were isolated from 18-20 week human fetuses and propagated in standard medium (SM) comprising Advanced DMEM/F12 with 1×N−2 supplement, 1×GlutaMax-1, 20 ng/ml human FGF-basic protein and 20 ng/ml human EGF protein.
# In the following experiments, conditioned medium (CM) was collected from hRPCs, hRB cells or hRPE grown in SM for 48 hours (with replacement of the SM after 24 hours). Cells were harvested and counted after each CM collection.
# First, 12.5×10^3, 2.5×10^4, 5.0×10^4, 1.0×10^5 and 2.0×10^5 Human Retinoblastoma (hRB) Y79 (ATCC® HTB-18™) cells were plated in five separate wells of a 96 well assay plate and incubated in 50 μl SM. […] Resorufin is highly fluorescent, meaning that the fluorescence signal generated can be used to determine the viability of the cells incubated with Resazurin.
# The fluorescence of each well was measured after incubation with resazurin. Fluorescence signals were read at an excitation wavelength of 520 nm and an emission wavelength of 580-640 nm. […]
smiles,measurement,value
CCCC(=O)[O-].[Na+] [sodium butyrate],fluorescence signal (cell proliferation and viability) with higher concentrations of sodium butyrate,decreased fluorescence signals
